Source: publication PMC6748986, “Potent modulation of the CepR quorum sensing receptor and virulence in a Burkholderia cepacia complex member using non-native lactone ligands” (Scientific Reports, 2019)
Residue numbers refer to the chain shown, from its start. pEC50, pIC50: −log10 of the molar value.

Assays:
[1] = molecular target: T1, CepR (Burkholderia cenocepacia, UniProt B4EMD0); assay: CepR agonism in E. coli β-galactosidase reporter (Ec-reporter) JLD271 [pJN105-cepR + pSC11-cepI]; type: cell-based, B. cenocepacia; details: for Maximal Activation (%): activity for 100 μM C8-AHL set to 100%, error ±10%; for Act%: screening conc. 100 μM
T1 sequence (B4EMD0 1-239): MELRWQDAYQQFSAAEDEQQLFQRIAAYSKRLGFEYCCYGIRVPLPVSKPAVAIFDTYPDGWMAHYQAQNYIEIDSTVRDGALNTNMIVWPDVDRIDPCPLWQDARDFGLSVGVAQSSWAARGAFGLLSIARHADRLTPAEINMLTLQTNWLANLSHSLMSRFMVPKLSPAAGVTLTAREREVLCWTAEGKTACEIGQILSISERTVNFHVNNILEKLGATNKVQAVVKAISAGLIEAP
From the text: (§1) We began our study by screening the AHL library for CepR modulators using an E. coli-based two plasmid reporter system (Ec-reporter)[38]–[40]. Certain members of the Bcc harbor additional QS systems that are either AHL-based (e.g., BviI/BviR in B. vietnamiensis)[41] or diffusible signal factor (DSF)-based (B. cenocepacia)[42], and at least one member of the Bcc has multiple receptors that respond to C8-AHL (e.g., CepR and CepR2 in B. cenocepacia)[43]. Thus, we reasoned that using a CepR reporter in a heterologous background could simplify our initial analyses. We modified our previously reported E. coli-based two plasmid β-galactosidase reporter system to develop a CepR Ec-reporter (see Methods). The first plasmid, pJN105-cepR, contains CepR from B. cenocepacia under the control of the L-arabinose inducible pBAD promoter. A second plasmid contains a transcriptional fusion of lacZ to the cepI promoter region. The two plasmids were co-transformed into a QS mutant E. coli strain (JLD271 ∆sdiA) that lacks its LuxR-type receptor, SdiA. Using this reporter system, if an exogenously -added compound is able to interact with CepR, this will affect the protein’s interaction with the cepI promoter region and alter β-galactosidase production. Enzyme production, and thereby CepR activity, is then measurable via the degradation of a colorimetric substrate for β-galactosidase. Using this new Ec-reporter, we observed robust activity of CepR in response to its native ligand C8-AHL, with an EC50 of 5 nM (Table 1).
We used the CepR Ec-reporter to perform a primary agonism screen at a single compound concentration (100 μM, or its solubility limit, indicated in Table S1). Thirty-one compounds displaying ≥70% agonistic activity in CepR (relative to C8-AHL) were identified and subjected to dose-response analyses using the Ec-reporter (Table I; see Table S2 for complete screening data and Fig. S3 for dose-response curves).
(§2) E. coli β-galactosidase reporter assays (derived from ref.[63]) and reagents used to obtain primary screening and dose-response data were performed as previously described[22],[60],[64], with the following modifications: E. coli JLD271 (∆sdiA) was co-transformed iteratively with pSC11-cepI and pJN105-cepR via electroporation. A single colony was used to start overnight cultures in LB medium + ampicillin (100 μg/mL) + gentamicin (15 μg/mL). A 1:10 dilution of overnight culture was grown in fresh medium to OD600 = 0.25. A sterile solution of L-arabinose in water (27 mM final concentration) was added to induce protein expression, after which cells were plated in 96-well plates containing varying concentrations of compound (200 μL total volume).
(§3) Cells were grown for 4 h, OD600 was read, 50 μL aliquots from each well were permeabilized in 200 μL Z Buffer, and then 150 μL of this mixture used to measure the cleavage of 25 μL of 4 mg/mL CPRG in phosphate buffered saline (PBS) at 37 °C until positive control wells developed a deep red color (~30 min). For all agonism assays, synthetic compound (100 μM) was screened alongside and compared to the native ligand, C8-AHL (100 μM). For all primary and dose-response antagonism assays, the concentration of native ligand utilized was 10 nM (approximately equal to twice its EC50 value). […] At least 3 separate trials were performed using unique cultures on separate days.

[2] = molecular target: T1, CepR; assay: CepR antagonism in E. coli β-galactosidase reporter (Ec-reporter), competition against C8-AHL; type: cell-based, B. cenocepacia; details: against 10 nM C8-AHL; for Inh% (100-Act%): Table S3, Ec-reporter, screening conc. 100 μM
From the text: as §1
To identify antagonists of CepR, we screened the AHL library (at 100 μM) in competition against the native ligand C8-AHL (at approximately twice its EC50 value, 0.01 μM) in the Ec-reporter. […] The active compounds were subjected to dose-response analyses in the Ec-reporter to obtain IC50 values and assess their relative potencies (Table 2; see Table S3 for complete screening data and Fig. S3 for dose-response curves). One general trend that we noted at the outset was the majority of the antagonists had acyl tails of similar or shorter overall length than CepR’s native ligand, C8-AHL. From this set, the strongest antagonists could be divided into two classes: (i) “short alkyl tail” AHLs or analogs thereof, and (ii) phenylacetanoyl HLs (PHLs). The discovery that the latter compounds were CepR antagonists was perhaps not surprising, as we have found substituted PHLs to strongly antagonize the majority of the LuxR-type receptors studied in our laboratory to date[22],[24],[29],[45],[46].
as §2, §3

[3] = molecular target: T2, CepR (Burkholderia multivorans, UniProt Q93PF7); assay: CepR agonism in B. multivorans cepI::lacZ reporter (Bm-reporter); type: cell-based; details: for pEC50 / Maximal Activation (%): Bm-reporter; for pEC50: agonism dose-response, read-out: EC50; for Maximal Activation (%): activity for 100 μM C8-AHL set to 100%, error ±10%; for Act%: Table S4, Bm-reporter, screening conc. 100 μM
T2 sequence (Q93PF7 1-239): T1 sequence (B4EMD0 1-239) with W5R, A51S, Q69H, N84S, R95Q, D97A
From the text: We next sought to assess if the CepR modulators identified in the Ec-reporter maintained their activities in a member of the Bcc. For these studies, we generated a B. multivorans cepI::lacZ reporter organism (Bm-reporter) using standard allelic exchange methods (see Methods). Along with B. cenocepacia, B. multivorans is one of the most commonly isolated Bcc members[6],[44]. We note that small molecules must contend with a different cellular environment in the native organism relative to E. coli[48]; however, as both CepR and the cepI promoter are highly conserved among Bcc species (Fig. S3), we reasoned that the majority of compounds identified in the Ec-reporter (containing B. cenocepacia versions of the cepI promoter and the cepR gene) would maintain their relative activity profiles in CepR in B. multivorans. […] Similar to the Ec-reporter, CepR binding to the cepI promoter then induces β-galactosidase production, allowing for the quantitation of CepR activity. Using the Bm-reporter organism, we observed robust activity for CepR in response to C8-AHL (EC50 = 0.7 nM, Table 3).
The B. multivorans cepI::lacZ strain was used to obtain dose-response data for CepR in response to synthetic AHLs. Overnight cultures of B. multivorans cepI::lacZ were grown in LB medium at 37 °C with shaking (225 rpm). Aliquots (200 μL) of a 1:10 dilution of this overnight culture were plated into 96-well plates containing varying concentrations of compound, and then grown for 4 h at 37 °C with shaking (225 rpm). β-galactosidase production was measured as described above for E. coli, with the following changes: permeabilized cells were incubated at 25 °C with substrate CPRG for ~10 min until positive control wells developed a deep red color. For agonism assays, synthetic compound was screened alongside and compared to the native ligand, C8-AHL (100 μM). For antagonism assays, the concentration of native ligand utilized was 5 nM (approximately equal to twice its EC50 value).

[4] = Ec-reporter, agonism dose-response

Row | Compound | Act% ([1]; Table S2, Ec-reporter) | Inh% (100-Act%) [2] | other results
1 | CCCCCC(=O)CC(=O)N[C@H]1CCOC1=O [3’O-C8-AHL, reference compound] | 86% | 3.0% | pEC50 [1, 4]: 5.92; Maximal Activation (%) ([1]; Ec-reporter): 86%; pIC50 ([2]; Ec-reporter): 4.80; Maximal Inhibition (%) ([2]; Ec-reporter): 71%; pEC50 [3]: ≤ 5.46; Maximal Activation (%) [3]: 72%; Act% [3]: 72%
2 | CCCCCCCCCC(=O)CC(=O)N[C@H]1CCOC1=O [3’O-C12-AHL, reference compound] | 98% | -40% | Act% [3]: 80%
3 | O=C(CCCOc1ccc(Cl)cc1)NC1CCOC1=O (stereo not drawn) [CL, reference compound] | 110% | -20% | pEC50 ([1]; Table S2, Ec-reporter): 7.92; pEC50 [3]: 6.03; Maximal Activation (%) [3]: 80%; Act% [3]: 80%
4 | O=C(CCc1ccc(Br)cc1)N[C@H]1CCOC1=O [Compound B7] | 97% | -50% | pEC50 [1, 4]: 9.54; EC50 (nM) [1, 4]: sub-nanomolar; Maximal Activation (%) ([1]; Ec-reporter): 97%; pEC50 [3]: 9.62; Maximal Activation (%) [3]: 82%; Act% [3]: 82%
5 | O=C(CCC1CCCCC1)N[C@H]1CCOC1=O [Compound B11] | 87% | -20% | pEC50 [1, 4]: 6.89; Maximal Activation (%) ([1]; Ec-reporter): 87%; Act% [3]: 51%
6 | O=C(N[C@H]1CCOC1=O)c1ccc(Cl)cc1 [Compound Q4] | 49% | -20% | 
7 | O=C(N[C@H]1CCOC1=O)c1ccc(I)cc1 [Compound Q5] | 78% | 0.0% | 
8 | COc1ccc(C(=O)N[C@H]2CCOC2=O)cc1 [Compound Q6] | 25% | -20% | 
9 | O=C(N[C@H]1CCOC1=O)c1ccc([N+](=O)[O-])cc1 [Compound Q7] | 10% | 28% | 
10 | Cc1ccc(C(=O)N[C@H]2CCOC2=O)cc1 [Compound Q8] | 19% | -20% | 
11 | CCCCCCCCOc1ccc(C(=O)N[C@H]2CCOC2=O)cc1 [Compound Q9] | 62% | -20% | 
12 | O=C(N[C@H]1CCOC1=O)c1ccc(Oc2ccc(Br)cc2)cc1 [Compound Q10] | 64% | -40% | 
13 | O=C(N[C@H]1CCOC1=O)c1ccc2c(c1)OCO2 [Compound Q11] | 6.9% | 5.0% | 
14 | O=C(N[C@H]1CCOC1=O)c1ccc(-c2ccccc2)cc1 [Compound Q12] | 111% | -70% | 
15 | CC(C)(C)OC(=O)c1ccc(C(=O)N[C@H]2CCOC2=O)cc1 [Compound Q13] | 6.8% | 11% | 
16 | CCOc1ccc(C(=O)N[C@H]2CCOC2=O)cc1 [Compound R1] | 99% | -20% | pEC50 ([1]; Table S2, Ec-reporter): 6.74
17 | CCCCCOc1ccc(C(=O)N[C@H]2CCOC2=O)cc1 [Compound R5] | 95% | -10% | 
18 | O=C(CCCC1CCCCC1)N[C@H]1CCOC1=O [Compound S6] | 90% | -10% | 
19 | O=C(CC1CCCCC1)N[C@H]1CCOC1=O [Compound S7] | 7.6% | 20% | 
20 | CCCCCCCCCC(=O)CC(=O)Nc1ccccc1 [Compound V-06-018, reference compound] |  |  | Act% ([1]; Table S2, Ec-reporter, listed as V-06-01 8): 2.4%; Inh% (100-Act%) ([2]; listed as V-06-01 8): -20%
21 | O=C(Cc1ccccc1)N[C@H]1CCOC1=O [Control 5, reference compound] |  | 11% | Act% ([1]; Table S2, Ec-reporter, listed as Co n tro l 5): 9.8%
22 | O=C(CCCc1ccccc1)N[C@H]1CCOC1=O [Control 6, reference compound] | 80% | 3.0% | 
23 | CCCCCCCCCC(=O)CC(=O)Nc1cccc(OC)c1 [Control 13, reference compound] | 2.0% | 13% | 
24 | CCCCCCCCCC(=O)CC(=O)NC1CCCCC1=O (stereo not drawn) [Control 15, reference compound] | 5.2% | 29% | 
25 | CCCCCC(=O)CC(=O)N[C@@H]1CCOC1=O [D-3’O-C8-AHL] | 85% | -40% | CepR agonism in words ([1]; Ec-reporter): inactive; pEC50 [1, 4]: ≤ 4.57; Maximal Activation (%) ([1]; Ec-reporter): 85%
26 | CCCCCCCCCCCCn1nnc(CC(=O)O)n1 [PD-12, reference compound] | -7.6% | -40% | 
27 | O=C(NCc1cc(Br)cc(Br)c1OC(=O)c1ccccc1[N+](=O)[O-])c1ccccc1Cl [TP-1P, reference compound] | 54% | 0.0% | 
28 | meta-bromo-thiolactone [mBTL, reference compound] | 0.4% | -60% | 
